Values quoted from earlier work in US8883820B2, “Triazole derivatives as kinase inhibitors” (Cellzome Ltd., priority 2006, dated 2014).

How the values were obtained:
[1] = system: myocardial infarction
[2] = system: systemic lupus erythematosus (SLE); conditions: intraperitoneal administration
[3] = system: lymphocyte-dependent rheumatoid arthritis induced by direct collagen II injection; conditions: oral
[4] = system: collagen II-antibody-induced arthritis; conditions: oral, wildtype mice

## Nc1nc(N)c2nc(-c3cccc(O)c3)c(-c3cccc(O)c3)nc2n1 [TG100-115]
[1]; dosing after myocardial reperfusion (up to 3 hours after)
  cardioprotection: provided cardioprotection
[1]; in vivo
  edema and inflammation in response to multiple mediators: potently inhibits

## O=C1NC(=O)/C(=C\c2ccc3nccnc3c2)S1 [AS-605240]
[2]
  CD4+ T-cell populations: reduced CD4+ T-cell populations
  glomerulonephritis: reduced glomerulonephritis
  life span: prolonged life span
[3]
  joint inflammation and damage: decreased joint inflammation and damage
[4]
  clinical and histologic signs of collagen II-antibody-induced arthritis: reduced clinical and histologic signs
